# Legend:
# [1] = system: OPN knockout (OPN-KO) mice; assay: Determination of TRAP-positive cells (osteoclasts) after PTH treatment, OPN-KO mice; format: in vivo, mouse; details: PTH(+) group, 80 μg/kg s.c., 4 weeks
# Protocol: After treatment with PTH, forefoot bone was excised from each animal. Each bone was rinsed with PBS, fixed for 7 days in 4% paraformaldehyde acid and decalcified for 3 days in 10% EDTA (pH 7.4), followed by dehydration and embedding in paraffin. Serial sections of 7 μm thickness were prepared from paraffin blocks and stained to measure TRAP (tartrate resistant acid phosphatase) activity, with Alcian blue for counter-staining. Among TRAP-positive cells attached to cancellous bone, those having at least three nuclei were counted using 15 serial sections of 7 μm thickness prepared from each bone. Each of the 15 sections was taken at five-section intervals from a total of 75 sections per bone. The number of multinucleated TRAP-positive cells in all 15 sections was summed to give the total number of osteoclasts per unit trabecular perimeter.
# (§1) To create an animal model in which the in vivo effects of OPN were inhibited, strain 129 female mice at 7 weeks of age were modified into knockout mice deficient in the OPN gene (OPN-KO mice), as described in Rittling et al. J. Bone Miner. Res., 13: 1101-1111, 1998. These mice were singly used for PTH treatment test. They were divided into groups of 6 mice each.
# Recombinant human PTH(1-34) (Bachem, Torrance, Calif.) was dissolved in acidified physiological saline supplemented with 0.1% bovine serum albumin (Sigma Chemical Co.-Aldrich, St. Louis, Mo.). […]
# [2] = system: OPN knockout (OPN-KO) mice; assay: Determination of cortical bone thickness and area after PTH treatment, OPN-KO mice; format: in vivo, mouse; details: PTH(+) group, 80 μg/kg s.c., 4 weeks, femoral mid-diaphysis
# Protocol: Horizontal sections were prepared from the femoral mid-diaphysis and tomographed using an X-ray microtomograph Musashi (Nittetsu-ELEX, Osaka, Japan). A Luzex-F automated image analysis system (Nireco, Tokyo, Japan) was then used for analysis of the image data to determine the thickness and area of cortical bone. The thickness was evaluated at the mean value averaged over 8 measurements every 45°.
# as §1
# (§2) Recombinant human PTH(1-34) (Bachem, Torrance, Calif.) was dissolved in acidified physiological saline supplemented with 0.1% bovine serum albumin (Sigma Chemical Co.-Aldrich, St. Louis, Mo.). The OPN-KO mice were subcutaneously administered with 80 μg/kg of body weight human PTH(1-34) for 4 weeks on a five-days-a-week basis. Mice in the control group were administered with physiological saline alone.
# [3] = system: wild-type strain 129 female mice; assay: Determination of cancellous bone mass (BV/TV) after PTH treatment, wild-type mice; format: in vivo, mouse; details: WT mice, PTH(+) group, 80 μg/kg s.c., 4 weeks, five days a week
# Protocol: Sagittal sections were prepared from the metaphyseal region of femur and tomographed using an X-ray microtomograph Musashi (Nittetsu-ELEX, Osaka, Japan). A Luzex-F automated Image analysis system (Nireco, Tokyo, Japan) was then used for analysis of the image data from a 1.47 mm^2 square area (0.7 mm×2.1 mm) located 0.2 mm apart from the growth plate of the distal end of femur to obtain BV/TV values. BV/TV (bone volume/total tissue volume) denotes the unit bone mass (%), i.e., the percentage of the total trabecular volume in the total tissue volume. Namely, an increase in BV/TV means an increase in calcified bone. Recombinant human PTH(1-34) (Bachem, Torrance, Calif.) was dissolved in acidified physiological saline supplemented with 0.1% bovine serum albumin (Sigma Chemical Co.-Aldrich, St. Louis, Mo.). The OPN-KO mice were subcutaneously administered with 80 μg/kg of body weight human PTH(1-34) for 4 weeks on a five-days-a-week basis. Mice in the control group were administered with physiological saline alone. The effect of PTH on bone metabolism was also examined in the same manner as shown in Example 1, using wild-type strain 129 female mice (7 weeks of age). These mice were divided into groups of 6 mice each.
# [4] = system: wild-type strain 129 female mice; assay: Analysis of urinary deoxypyridinoline (Dpyr) after PTH treatment, wild-type mice; format: in vivo, mouse; details: WT mice
# Protocol: At 26 days after treatment with PTH, a 24-hour urine sample was collected from each mouse (10 samples per group). As a marker of bone metabolism, the level of urinary deoxypyridinoline (Dpyr) was measured for each sample using an ELISA kit (Metra Biosystems, San Diego, Calif.) in accordance with the manufacturer's protocol. Recombinant human PTH(1-34) (Bachem, Torrance, Calif.) was dissolved in acidified physiological saline supplemented with 0.1% bovine serum albumin (Sigma Chemical Co.-Aldrich, St. Louis, Mo.). The OPN-KO mice were subcutaneously administered with 80 μg/kg of body weight human PTH(1-34) for 4 weeks on a five-days-a-week basis. Mice in the control group were administered with physiological saline alone. The effect of PTH on bone metabolism was also examined in the same manner as shown in Example 1, using wild-type strain 129 female mice (7 weeks of age). These mice were divided into groups of 6 mice each.
# [5] = system: wild-type strain 129 female mice; assay: BFR and MAR in cortical bone (femoral mid-diaphysis) after PTH treatment, wild-type mice; format: in vivo, mouse; details: WT mice
# Protocol: In the case of cortical bone, decalcified horizontal sections (serial sections of 3 μm thickness) were prepared from the femoral mid-diaphysis and analyzed for BFR and MAR in the periosteal and endosteal regions. More specifically, a calcium chelator calcein (4 mg/kg of body weight) was subcutaneously administered 9 days and 2 days before sampling and the interval between two labeled bands was determined under a fluorescence microscope to calculate BFR and MAR. BFR denotes bone formation rate per unit trabecular area (μm^3/μm^2/day). MAR denotes the rate of increase in the distance between labeled calcified bands (μm/day). Recombinant human PTH(1-34) (Bachem, Torrance, Calif.) was dissolved in acidified physiological saline supplemented with 0.1% bovine serum albumin (Sigma Chemical Co.-Aldrich, St. Louis, Mo.). The OPN-KO mice were subcutaneously administered with 80 μg/kg of body weight human PTH(1-34) for 4 weeks on a five-days-a-week basis. Mice in the control group were administered with physiological saline alone. The effect of PTH on bone metabolism was also examined in the same manner as shown in Example 1, using wild-type strain 129 female mice (7 weeks of age). These mice were divided into groups of 6 mice each.
# [6] = system: OPN knockout (OPN-KO) mice; assay: Analysis of urinary deoxypyridinoline (Dpyr) after PTH treatment, OPN-KO mice; format: in vivo, mouse
# Protocol: At 26 days after treatment with PTH, a 24-hour urine sample was collected from each mouse (10 samples per group). As a marker of bone metabolism, the level of urinary deoxypyridinoline (Dpyr) was measured for each sample using an ELISA kit (Metra Biosystems, San Diego, Calif.) in accordance with the manufacturer's protocol.
# as §1, §2
# [7] = system: postmenopausal patients with osteoporosis; details: 100 μg/day once-daily subcutaneous injections for 6 months; cited from earlier work
# [8] = PTH(+) group, 24-hour urine at 26 days
# [9] = PTH(+) group, 80 μg/kg s.c., 4 weeks
# [10] = PTH(+) vs PTH(−) group, significant inhibition of bone formation (p<0.05)
substance,measurement,setting,value
human PTH(1-34),number of osteoclasts per unit trabecular perimeter of cancellous bone,[1],7.6±1.0 cells/mm
same,area of cortical bone,[2],0.88±0.13 mm^2
same,thickness of cortical bone,[2],0.26±0.04 mm
same,cancellous bone mass BV/TV,[3],21.17±2.68%
same,urinary Dpyr level,[4]; [8],34.86±6.90 nM/mM Cr
same,fold increase in systemic bone resorption (urinary Dpyr) by PTH treatment,"[4]; PTH(+) vs PTH(−) group, p<0.05",~1.2 fold
same,"endosteal BFR, cortical bone",[5]; [9],1.37±0.18 μm^3/μm^2/day
same,"endosteal MAR, cortical bone",[5]; [9],2.44±0.29 μm/day
same,"periosteal BFR, cortical bone",[5]; [9],1.07±0.08 μm^3/μ^2/day
same,"periosteal MAR, cortical bone",[5]; [9],2.05±0.21 μm/day
same,fold increase in endosteal BFR by PTH treatment,"[5]; PTH(+) vs PTH(−) group, p<0.05",about 1.8 fold
same,fold increase in endosteal MAR by PTH treatment,"[5]; PTH(+) vs PTH(−) group, p<0.05",~1.5 fold
same,fold increase in periosteal BFR by PTH treatment,[5]; [10],~0.6 fold
same,fold increase in periosteal MAR by PTH treatment,[5]; [10],~0.7 fold
same,urinary Dpyr level,[6]; [8],34.67±4.52 nM/mM Cr
same,fold increase in systemic bone resorption (urinary Dpyr) by PTH treatment,"[6]; PTH(+) vs PTH(−) group, p<0.05",~1.2 fold
same,calcium balance,[7],restored normal calcium balance
same,cancellous bone mass,[7],increased cancellous bone mass

# — patent publication US20080076711A1, “Therapeutic agents for osteopenia” (Chugai Seiyaku Kabushiki Kaisha, priority 2001, published 2008)
